Measured values from PubChem BioAssay AID1918954 (Molecular Pharmacology Branch, DTP, NCI, 2023).
Several values for one entry are separate records, joined by “and”; a condition that tells them apart may be missing. Equal values may be shown once.

Tested on: MDA-MB-468 complex spheroids with HUVEC/MSC, viability
Test: Anticancer human tumor MDA-MB-468 cell line growth inhibition;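 also: spheroids exposed to agents for seven days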;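 as to viability, T/C: 100% = DMSO vehicle control viability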
Conditions: for viability, T/C: stronger effect = lower value
Excerpt: Multicellular complex tumor spheroid response to LSD1 Inhibitor Iadademstat in combination with a variety of drugs and investigational agents in selected tumor cell lines
The current study was undertaken to assess response to LSD1 inhibitors in combination with standard-of-care drugs and investigational agents in solid tumor complex spheroid models as well as in the K-562 leukemia. Complex spheroids include a stromal component modeled by human endothelial cells (HUVEC) and fibroblasts modeled by human mesenchymal stem cells (MSCs). The concentration ranges selected for each drug and investigational agent were based upon clinically achievable concentrations if the clinical Cmax of the agent was known.
Compounds. The drugs and investigational agents used in this study are listed on Table 1. All of the agents used, including staurosporine (NSC755774) and gemcitabine (NSC613327), were obtained from the Developmental Therapeutics Program, NCI. FDA-approved anticancer drugs are available from the NCI at http://dtp.nci.nih.gov/branches/dscb/oncology_drugset_explanation.html. Drugs and investigational agents were >95% pure by proton nuclear magnetic resonance (NMR) and liquid chromatography/mass spectrometry (LC/MS). Stock solutions were prepared at 400x in DMSO, stored at -70 degrees C, and diluted in fresh medium prior to their use. The final concentration of DMSO in cell culture wells never exceeded 0.25% (v/v). The FDA-approved anticancer drug set is available from the Developmental Therapeutics Program at https://dtp.cancer.gov/organization/dscb/obtaining/available_plates.htm. All drugs and investigational agents were tested over a range starting from a high concentration at or near the clinical Cmax and decreasing in half-log increments. If the clinical Cmax for an agent had not been determined, the highest concentration tested was 10 microM.
Cell Lines. The patient-derived cancer cell (PDC) lines: 292921-168-R-J2-PDC, K24384-001-R-PDC, and 521955-158-R2-J5-PDC pancreatic carcinomas, 556581-035-R-J1 ovarian carcinoma, 324938-238-R-J1-PDC, 855422-203-R-J1-PDC and 883617-216-R-J1-PDC urothelial bladder carcinomas, 743489-274-T-PDC renal cell carcinoma, 138582-R-J1 Merkel cell tumor, K60290-347-R-J1 and K57222-313-R-J1-PDC glioblastomas, 653999-131-R-J2-PDC, LG0703-F948-PDC, and 349418-098-R-PDC non-small cell lung carcinomas, 885512-296-R-J2-PDC, 171881-019-R-J1-PDC breast carcinomas and 186277-243-T-J2-PDC and 233499-124-R-J2-PDC colon carcinomas were obtained from the NCI Patient-Derived Models Repository (PDMR, https://pdmr.cancer.gov). The established cell lines NCI/ADR-RES (RRID:CVCL_14520 and OVCAR-5 (RRID:CVCL_1628) ovarian carcinomas, 786-O (RRID:CVCL_1051) and A498 (RRID:CVCL_A498) renal cell carcinoma, NCI-H211 (ATCC, cat. CRL-5824; RRID:CVCL_1529), NCI-H196 (ATCC, cat. CRL-5823, RRID:CVCL_1509), SW 1271 (ATCC, cat. CRL-2177, RRID:CVCL_1716) and NCI-H1876 (ATCC, cat. CRL-5902, RRID:CVCL_1503) small cell lung carcinomas, MDA-MB-231 (RRID:CVCL_0062) and MDA-MB-468 (RRID:CVCL_0419)breast carcinomas (10-12). Pooled donor human umbilical vein endothelial cells (HUVEC, Lonza, cat. CC-2519) and human mesenchymal stem cells (hMSC, Lonza, cat. PT-2501) were purchased from Lonza (Walkersville, MD).
Cell Culture. All cells were maintained in an incubator at 37 degrees C and 5% CO2 with 95% humidity. The PDC lines were cultured according to standard operating procedures established by the NCI PDMR (https://pdmr.cancer.gov). Briefly all PDCs were thawed and cultured in Matrigel-coated flasks prepared with a working solution of 1X Ham's F-12 nutrient mix, without supplementation (Invitrogen, Waltham, MA, cat. 11765054), 100 U/mL penicillin-streptomycin (Invitrogen, cat. 15140122), and 2.5% Matrigel (Corning Inc., Corning, NY, cat. 354248) for the first three passages. […]

SMILES	viability, T/C (compound 0.00316 µM)	viability, T/C (compound 0.01 µM)	viability, T/C (compound 0.0316 µM)	viability, T/C (compound 0.1 µM)	IC50 (curve of compound)	viability, T/C (compound 0.316 µM)	viability, T/C (compound 1 µM)	viability, T/C (compound 0.00949 µM)	viability, T/C (compound 0.03 µM)	viability, T/C (compound 0.0949 µM)	viability, T/C (compound 0.3 µM)	other results
CC(C)CC(NC(=O)C(Cc1ccccc1)NC(=O)c1cnccn1)B(O)O (stereo not given)	0.95% and 0.15%	1.2% and 0.15%	1.22% and 0.17%	1.51% and 0.22%	0.684 nM and < 0.316 nM							
CC(C)CC(NC(=O)CNC(=O)c1cc(Cl)ccc1Cl)B1OC(=O)CC(CC(=O)O)(C(=O)O)O1 (stereo not given)	55.3% and 42.1%	11.1% and 5.88%	1.51% and 0.31%	1.72% and 0.22%	3.43 nM and 2.67 nM							viability, T/C (compound 0.000316 µM): 109%; viability, T/C (compound 0.001 µM): 90.5% and 96.4%
CC(C)c1c(-c2ccccc2)nc2c(C#N)c[nH]n2c1=O			111% and 87.3%	101% and 89.5%	> 10000 nM	91.4% and 78.7%	101% and 96.7%					viability, T/C (compound 3.16 µM): 92% and 101%; viability, T/C (compound 10 µM): 72.1% and 88.9%
CC1(C)CCC(CN2CCN(c3ccc(C(=O)NS(=O)(=O)c4ccc(NCC5CCOCC5)c([N+](=O)[O-])c4)c(Oc4cnc5[nH]ccc5c4)c3)CC2)=C(c2ccc(Cl)cc2)C1			93.2% and 90.6%	102% and 95.5%	6600 nM and 1880 nM	101% and 85.6%	91.7% and 74%					viability, T/C (compound 3.16 µM): 70.5% and 30.9%
CC1COCCN1c1cc(-c2ccnn2C)c2ccnc(-c3ccn[nH]3)c2n1 (stereo not given)	81.2% and 38.9%	54.9% and 37.5%	35.7% and 19.3%	27% and 8.03%	13.7 nM and < 3.16 nM	15.8% and 5.94%	12.2% and 2.35%					
CC1COCCN1c1cc(C2(S(C)(=N)=O)CC2)nc(-c2ccnc3[nH]ccc23)n1 (stereo not given)			101% and 78.9%	67.4% and 88.1%	282 nM and 835 nM	50.6% and 66.4%	30.4% and 46%					viability, T/C (compound 3.16 µM): 21.9% and 24.2%; viability, T/C (compound 10 µM): 11.6% and 9.82%
CCN(c1cc(-c2ccc(CN3CCOCC3)cc2)cc(C(=O)NCc2c(C)cc(C)[nH]c2=O)c1C)C1CCOCC1					> 3000 nM and 441 nM			81.6% and 96.5%	100% and 76.8%	118% and 74.4%	92.3% and 50.2%	viability, T/C (compound 0.949 µM): 92.2% and 44%; viability, T/C (compound 3 µM): 75.7% and 24.5%
CC[C@@]1(O)C(=O)OCc2c1cc1n(c2=O)Cc2cc3c(CN(C)C)c(O)ccc3nc2-1	16.9% and 14%	10.4% and 12.7%	7.18% and 6.23%	7.59% and 4.68%	0.662 nM and 1.14 nM							viability, T/C (compound 0.000316 µM): 69% and 95.9%; viability, T/C (compound 0.001 µM): 39.5% and 54.5%
CCc1c2c(nc3ccc(O)cc13)-c1cc3c(c(=O)n1C2)COC(=O)[C@]3(O)CC					< 0.949 nM			5.45% and 2.28%	2.45% and 0.63%	2.17% and 0.53%	2.73% and 0.59%	viability, T/C (compound 0.000949 µM): 7.07% and 5.35%; viability, T/C (compound 0.003 µM): 7.03% and 4.74%
COc1cc(C2c3cc4c(cc3C(OC3OC5COC(C)OC5C(O)C3O)C3COC(=O)C23)OCO4)cc(OC)c1O (stereo not given)					87.8 nM and 52.4 nM			79% and 92.3%	76.9% and 70.8%	48.1% and 27.1%	15.1% and 15%	viability, T/C (compound 0.949 µM): 14.4% and 10%; viability, T/C (compound 3 µM): 10.4% and 4.22%
COc1cc(Nc2ncc3c(n2)-c2ccc(Cl)cc2C(c2c(F)cccc2OC)=NC3)ccc1C(=O)O	69.6% and 17.2%	28.3% and 7.92%	17.4% and 5.89%	8.67% and 6.08%	5.54 nM and < 3.16 nM	7.8% and 4.66%	7.38% and 3%					
COc1ccc([C@@H](O)c2cc(-c3ncnc4cc(N5CCOCC5)ccc34)c(F)cc2Cl)nn1			91.7% and 90.3%	86.8% and 90.4%	1480 nM and 1130 nM	82.5% and 71.8%	58.3% and 51%					viability, T/C (compound 3.16 µM): 32.1% and 29.9%; viability, T/C (compound 10 µM): 14% and 6.59%
Cn1ncnc1C1c2n[nH]c(=O)c3cc(F)cc(c23)NC1c1ccc(F)cc1 (stereo not given)	77.2% and 65.3%	72% and 75%	61.2% and 64.5%	60.7% and 50.9%	> 100 nM							viability, T/C (compound 0.000316 µM): 103% and 96.9%; viability, T/C (compound 0.001 µM): 86.7% and 79.6%
NC1CC1c1ccc(-c2cccc(O)c2)cc1 (stereo not given)												IC50 (compound alone, run of 02/01/2022): > 10000 nM
NC1CCC(NC2CC2c2ccccc2)CC1 (stereo not given)						96.4% and 88.1% and 98.6%						IC50 (compound alone, run of 01/24/2022): > 10000 nM and 9570 nM
NS(=O)(=O)OCC1CC(n2ccc3c(NC4CCc5ccccc54)ncnc32)CC1O (stereo not given)					31.5 nM and 12 nM			67.5% and 55.7%	52.1% and 28.4%	19.3% and 11.1%	12.9% and 5.49%	viability, T/C (compound 0.949 µM): 6.45% and 3.24%; viability, T/C (compound 3 µM): 3.84% and 2.08%
Nc1ccccc1NC(=O)c1ccc(CNC(=O)OCc2cccnc2)cc1					145 nM and 74.3 nM			98.7% and 100%	99.5% and 103%	70.2% and 36.1%	14.8% and 2.86%	viability, T/C (compound 0.949 µM): 3.01% and 0.37%; viability, T/C (compound 3 µM): 1.7% and 0.2%
Nc1ccn(C2OC(CO)C(O)C2(F)F)c(=O)n1 (stereo not given)					< 0.949 nM			5.5% and 5.58%	5.68% and 4.46%	5.72% and 4.42%	5.93% and 4.29%	viability, T/C (compound 0.003 µM): 6.32% and 18.5%
Nc1ncn(C2CC(O)C(CO)O2)c(=O)n1 (stereo not given)	81.4% and 94.2%	59.5% and 67%	23.6% and 31.2%	15% and 14.6%	13.6 nM and 17.3 nM	12.6% and 11%	12% and 8.85%					
Nc1ncn(C2CC(O)C(CO)S2)c(=O)n1 (stereo not given)					120 nM and 35.5 nM			75.2% and 70.6%	73.4% and 52%	53.9% and 36.5%	34.9% and 20.4%	viability, T/C (compound 0.000949 µM): 79.6% and 100%; viability, T/C (compound 0.003 µM): 74.9% and 93.2%
O=C(C=Cc1cccc(S(=O)(=O)Nc2ccccc2)c1)NO					75.6 nM and 52 nM			80.6% and 78.8%	72.8% and 67.2%	44.4% and 25.1%	17.5% and 2.5%	viability, T/C (compound 0.949 µM): 4.34% and 0.22%
O=C(C=Cn1cnc(-c2cc(C(F)(F)F)cc(C(F)(F)F)c2)n1)NNc1cnccn1	39.9% and 36.5%	29.8% and 27.9%	8.39% and 16.7%	3.01% and 3.24%	< 3.16 nM	2.33% and 1.39%	1.59% and 0.94%					
O=C(c1cc(Cc2n[nH]c(=O)c3ccccc23)ccc1F)N1CCN(C(=O)C2CC2)CC1			94.3% and 76.8%	73.5% and 79.1%	989 nM and 1050 nM	75% and 69.3%	52.9% and 52.6%					viability, T/C (compound 3.16 µM): 21.7% and 20.2%; viability, T/C (compound 10 µM): 22.6% and 21.4%
